Tests used:
[1] = molar heat capacity at constant pressure; details: Liquid, Small sample (50 mg) DSC
[2] = Liquid, Vibrating tube method

CCCCCCN [1-hexanamine]
Details	mass density, [2] [kg/m3]	molar heat capacity at constant pressure, [1] [J/K/mol]
293.15 K, 100 kPa	765	–
293.15 K, 10000 kPa	771.2	–
293.15 K, 20000 kPa	777.4	–
293.15 K, 30000 kPa	783.2	–
293.15 K, 40000 kPa	788.6	–
293.15 K, 50000 kPa	793.7	–
293.15 K, 60000 kPa	798.6	–
293.15 K, 70000 kPa	803.1	–
293.15 K, 80000 kPa	807.5	–
293.15 K, 90000 kPa	811.8	–
293.15 K, 100000 kPa	815.8	–
293.15 K, 110000 kPa	819.6	–
293.15 K, 120000 kPa	823.3	–
293.15 K, 130000 kPa	826.9	–
293.15 K, 140000 kPa	830.3	–
313.15 K, 100 kPa	–	253.5
313.15 K, 20000 kPa	–	251
313.15 K, 40000 kPa	–	250.1
313.15 K, 60000 kPa	–	248.9
323.15 K, 100 kPa	–	253.7
323.15 K, 20000 kPa	–	251.5
323.15 K, 40000 kPa	–	250.5
323.15 K, 60000 kPa	–	249.3
333.15 K, 100 kPa	–	254.4
333.15 K, 20000 kPa	–	252.4
333.15 K, 40000 kPa	–	251.2
333.15 K, 60000 kPa	–	250.1
343.15 K, 100 kPa	–	255.7
343.15 K, 20000 kPa	–	253.6
343.15 K, 40000 kPa	–	252.3
343.15 K, 60000 kPa	–	251.3
353.15 K, 100 kPa	712.4	257.5
353.15 K, 10000 kPa	722.4	–
353.15 K, 20000 kPa	731.1	255.2
353.15 K, 30000 kPa	739.1	–
353.15 K, 40000 kPa	746.2	253.8
353.15 K, 50000 kPa	752.8	–
353.15 K, 60000 kPa	758.9	252.8
353.15 K, 70000 kPa	764.7	–
353.15 K, 80000 kPa	770.1	–
353.15 K, 90000 kPa	775.2	–
353.15 K, 100000 kPa	780.1	–
353.15 K, 110000 kPa	784.7	–
353.15 K, 120000 kPa	789.2	–
353.15 K, 130000 kPa	793.4	–
353.15 K, 140000 kPa	797.5	–
363.15 K, 100 kPa	703.9	259.8
363.15 K, 10000 kPa	714.4	–
363.15 K, 20000 kPa	723.6	257.2
363.15 K, 30000 kPa	731.9	–
363.15 K, 40000 kPa	739.3	255.6
363.15 K, 50000 kPa	746.2	–
363.15 K, 60000 kPa	752.6	254.7
363.15 K, 70000 kPa	758.5	–
363.15 K, 80000 kPa	764.1	–
363.15 K, 90000 kPa	769.4	–
363.15 K, 100000 kPa	774.4	–
363.15 K, 110000 kPa	779.1	–
363.15 K, 120000 kPa	783.6	–
363.15 K, 130000 kPa	787.9	–
363.15 K, 140000 kPa	792.1	–
373.15 K, 100 kPa	694.8	262.6
373.15 K, 10000 kPa	706	–
373.15 K, 20000 kPa	716	259.6
373.15 K, 30000 kPa	724.5	–
373.15 K, 40000 kPa	732.4	257.8
373.15 K, 50000 kPa	739.5	–
373.15 K, 60000 kPa	746.1	256.9
373.15 K, 70000 kPa	752.2	–
373.15 K, 80000 kPa	758.1	–
373.15 K, 90000 kPa	763.5	–
373.15 K, 100000 kPa	768.7	–
373.15 K, 110000 kPa	773.5	–
373.15 K, 120000 kPa	778.2	–
373.15 K, 130000 kPa	782.6	–
373.15 K, 140000 kPa	786.9	–
383.15 K, 100 kPa	686.1	–
383.15 K, 10000 kPa	698.2	–
383.15 K, 20000 kPa	708.6	262.3
383.15 K, 30000 kPa	717.6	–
383.15 K, 40000 kPa	725.8	260.3
383.15 K, 50000 kPa	733.3	–
383.15 K, 60000 kPa	740.2	259.5
383.15 K, 70000 kPa	746.5	–
383.15 K, 80000 kPa	752.5	–
383.15 K, 90000 kPa	758.1	–
383.15 K, 100000 kPa	763.4	–
383.15 K, 110000 kPa	768.3	–
383.15 K, 120000 kPa	773.2	–
383.15 K, 130000 kPa	777.7	–
383.15 K, 140000 kPa	782	–
393.15 K, 100 kPa	676.2	–
393.15 K, 10000 kPa	689.2	–
393.15 K, 20000 kPa	700.3	265.3
393.15 K, 30000 kPa	709.8	–
393.15 K, 40000 kPa	718.4	263.1
393.15 K, 50000 kPa	726.6	–
393.15 K, 60000 kPa	733.7	262.4
393.15 K, 70000 kPa	740.3	–
393.15 K, 80000 kPa	746.5	–
393.15 K, 90000 kPa	752.2	–
393.15 K, 100000 kPa	757.7	–
393.15 K, 110000 kPa	762.9	–
393.15 K, 120000 kPa	767.8	–
393.15 K, 130000 kPa	772.5	–
393.15 K, 140000 kPa	776.9	–
403.15 K, 100 kPa	666.9	–
403.15 K, 10000 kPa	680.9	–
403.15 K, 20000 kPa	692.5	268.8
403.15 K, 30000 kPa	702.8	–
403.15 K, 40000 kPa	711.7	266.4
403.15 K, 50000 kPa	719.9	–
403.15 K, 60000 kPa	727.2	265.7
403.15 K, 70000 kPa	734.1	–
403.15 K, 80000 kPa	740.4	–
403.15 K, 90000 kPa	746.5	–
403.15 K, 100000 kPa	752.1	–
403.15 K, 110000 kPa	757.4	–
403.15 K, 120000 kPa	762.5	–
403.15 K, 130000 kPa	767.2	–
403.15 K, 140000 kPa	771.8	–

CCCCCN [1-pentanamine]
Details	mass density, [2] [kg/m3]	molar heat capacity at constant pressure, [1] [J/K/mol]
293.15 K, 100 kPa	754	–
293.15 K, 10000 kPa	760.8	–
293.15 K, 20000 kPa	767.2	–
293.15 K, 30000 kPa	773.3	–
293.15 K, 40000 kPa	779	–
293.15 K, 50000 kPa	784.3	–
293.15 K, 60000 kPa	789.3	–
293.15 K, 70000 kPa	794	–
293.15 K, 80000 kPa	798.5	–
293.15 K, 90000 kPa	802.9	–
293.15 K, 100000 kPa	806.9	–
293.15 K, 110000 kPa	810.9	–
293.15 K, 120000 kPa	814.6	–
293.15 K, 130000 kPa	818.2	–
293.15 K, 140000 kPa	821.8	–
313.15 K, 100 kPa	–	221.7
313.15 K, 20000 kPa	–	219.7
313.15 K, 40000 kPa	–	218.3
313.15 K, 60000 kPa	–	217.9
323.15 K, 100 kPa	–	222.7
323.15 K, 20000 kPa	–	220.1
323.15 K, 40000 kPa	–	218.7
323.15 K, 60000 kPa	–	218.3
333.15 K, 100 kPa	–	223.9
333.15 K, 20000 kPa	–	220.8
333.15 K, 40000 kPa	–	219.4
333.15 K, 60000 kPa	–	218.9
343.15 K, 100 kPa	–	225.3
343.15 K, 20000 kPa	–	221.8
343.15 K, 40000 kPa	–	220.5
343.15 K, 60000 kPa	–	219.8
353.15 K, 100 kPa	698.5	226.9
353.15 K, 10000 kPa	709.4	–
353.15 K, 20000 kPa	718.5	223.3
353.15 K, 30000 kPa	726.8	–
353.15 K, 40000 kPa	734.3	221.8
353.15 K, 50000 kPa	741.2	–
353.15 K, 60000 kPa	747.6	221.1
353.15 K, 70000 kPa	753.6	–
353.15 K, 80000 kPa	759.3	–
353.15 K, 90000 kPa	764.7	–
353.15 K, 100000 kPa	769.8	–
353.15 K, 110000 kPa	774.5	–
353.15 K, 120000 kPa	779	–
353.15 K, 130000 kPa	783.5	–
353.15 K, 140000 kPa	787.7	–
363.15 K, 100 kPa	688.6	–
363.15 K, 10000 kPa	700.1	–
363.15 K, 20000 kPa	710	225.1
363.15 K, 30000 kPa	718.7	–
363.15 K, 40000 kPa	726.6	223.5
363.15 K, 50000 kPa	733.9	–
363.15 K, 60000 kPa	740.6	222.6
363.15 K, 70000 kPa	746.9	–
363.15 K, 80000 kPa	752.8	–
363.15 K, 90000 kPa	758.5	–
363.15 K, 100000 kPa	763.7	–
363.15 K, 110000 kPa	768.7	–
363.15 K, 120000 kPa	773.4	–
363.15 K, 130000 kPa	777.9	–
363.15 K, 140000 kPa	782.1	–
373.15 K, 100 kPa	679	–
373.15 K, 10000 kPa	691.5	–
373.15 K, 20000 kPa	702	227.4
373.15 K, 30000 kPa	711.3	–
373.15 K, 40000 kPa	719.6	225.5
373.15 K, 50000 kPa	727.1	–
373.15 K, 60000 kPa	734.1	224.5
373.15 K, 70000 kPa	740.5	–
373.15 K, 80000 kPa	746.7	–
373.15 K, 90000 kPa	752.3	–
373.15 K, 100000 kPa	757.6	–
373.15 K, 110000 kPa	762.7	–
373.15 K, 120000 kPa	767.6	–
373.15 K, 130000 kPa	772.2	–
373.15 K, 140000 kPa	776.6	–
383.15 K, 10000 kPa	682.6	–
383.15 K, 20000 kPa	693.8	230
383.15 K, 30000 kPa	703.7	–
383.15 K, 40000 kPa	712.3	227.8
383.15 K, 50000 kPa	720.3	–
383.15 K, 60000 kPa	727.5	226.6
383.15 K, 70000 kPa	734.3	–
383.15 K, 80000 kPa	740.6	–
383.15 K, 90000 kPa	746.5	–
383.15 K, 100000 kPa	752	–
383.15 K, 110000 kPa	757.2	–
383.15 K, 120000 kPa	762.2	–
383.15 K, 130000 kPa	766.8	–
383.15 K, 140000 kPa	771.4	–
393.15 K, 10000 kPa	673.1	–
393.15 K, 20000 kPa	685.2	232.9
393.15 K, 30000 kPa	695.5	–
393.15 K, 40000 kPa	704.7	230.4
393.15 K, 50000 kPa	713.2	–
393.15 K, 60000 kPa	720.8	229
393.15 K, 70000 kPa	727.9	–
393.15 K, 80000 kPa	734.4	–
393.15 K, 90000 kPa	740.3	–
393.15 K, 100000 kPa	746	–
393.15 K, 110000 kPa	751.4	–
393.15 K, 120000 kPa	756.5	–
393.15 K, 130000 kPa	761.4	–
393.15 K, 140000 kPa	766	–
403.15 K, 10000 kPa	664.1	–
403.15 K, 20000 kPa	677	236.3
403.15 K, 30000 kPa	687.8	–
403.15 K, 40000 kPa	697.3	233.3
403.15 K, 50000 kPa	705.9	–
403.15 K, 60000 kPa	713.9	231.8
403.15 K, 70000 kPa	721	–
403.15 K, 80000 kPa	727.8	–
403.15 K, 90000 kPa	734	–
403.15 K, 100000 kPa	739.9	–
403.15 K, 110000 kPa	745.4	–
403.15 K, 120000 kPa	750.7	–
403.15 K, 130000 kPa	755.7	–
403.15 K, 140000 kPa	760.5	–

Reference: the NIST ThermoML archive (doi:10.1016/j.jct.2012.09.016)
